Biological target: T1, human GPR119 (Homo sapiens, UniProt Q8TDV5)
T1 construct: expression vector for human GPR119 cDNA (Acc. No. NP_848566); expressed in transfected cells
T1 sequence (Q8TDV5 1-335): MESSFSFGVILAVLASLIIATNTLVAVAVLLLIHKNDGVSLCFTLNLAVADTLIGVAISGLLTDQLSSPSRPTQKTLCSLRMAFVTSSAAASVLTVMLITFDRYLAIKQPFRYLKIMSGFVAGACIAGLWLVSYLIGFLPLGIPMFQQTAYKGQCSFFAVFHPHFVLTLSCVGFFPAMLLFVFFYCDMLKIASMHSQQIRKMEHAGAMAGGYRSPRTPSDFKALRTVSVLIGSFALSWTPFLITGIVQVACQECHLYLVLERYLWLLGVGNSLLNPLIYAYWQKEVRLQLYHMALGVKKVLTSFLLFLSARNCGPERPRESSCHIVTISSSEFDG
Assay: AlphaScreen cAMP assay in MIN6 cells stably transfected with human GPR119
Type: cell-based
Details: Min-6/hGPR119 cells, AlphaScreen cAMP Assay Kit, 45 minutes incubation at room temperature
Description: The compounds of formula I according to the invention modulate the activity of the G-protein-coupled receptor GPR119. The effect of the compounds on the activation of GPR119 and on the stimulation of intracellular cAMP concentration is determined using the AlphaScreen cAMP Assay Kit (Cat. No. #6760625R) made by PerkinElmer.
MIN6 cells [Miyazaki J et al. Endocrinology. 1990 July; 127(1):126-32] are stably transfected with an expression vector for human GPR119 cDNA (Acc. No. NP_848566). Min-6/hGPR119 cells are cultured in DMEM, 10% FBS, 50 μM β-mercaptoethanol, 0.3 mg/mL Geniticin, 2 mM GlutaMAX at 37° C. 5% CO2. For the assay, the cells are seeded in Optiplates (white, 384-well, 160 W-barcoded, TC, sterile with lid, Cat. No. #6007688 (Perkin Elmer); 10000 cells/well; 50 μl). The plates covered with lids are then incubated for 24 hours at 37° C./5% CO2. After the medium is aspirated from the wells completely, 10 μl of the test compound are added, the compounds are diluted using stimulating buffer (140 mM NaCl, 3.6 mM KCl, 0.5 mM NaH2PO4, 0.5 mM MgSO4, 1.5 mM CaCl2, 10 mM Hepes, 5 mM NaHCO3; pH 7.4. 0.5 mM IBMX and 0.1% BSA, the final DMSO concentration is 1%). After 45 minutes incubation at room temperature (approx. 20° C.), the cAMP concentrations are determined using the AlphaScreen cAMP Assay Kit (Cat. No. #6760625R from PerkinElmer).

Q: Which EC50 does the source give for `O=C(c1ccc(-c2cnco2)cc1)N(C1CC1)C1CCN(c2nc(CC(F)(F)F)no2)CC1` [Example 62, N-Cyclopropyl-4-oxazol-5-yl-N-{1-[3-(2,2,2-trifluoro-ethyl)-[1,2,4]oxadiazol-5-yl]-piperidin-4-yl}benzamide] here?
A: 16 nM

Q: Which EC50 does the source give for `CCc1cnc(N2CCC(N(C(=O)c3ccc(-c4cnco4)c(F)c3)C3CC3)CC2)nc1` [Example 63, N-Cyclopropyl-N-[1-(5-ethyl-pyrimidin-2-yl)-piperidin-4-yl]-3-fluoro-4-oxazol-5-yl-benzamide] here?
A: 3 nM

Q: How did the EC50 turn out when `CC(C)c1noc(N2CCC(N(C(=O)c3ccc(-c4cnco4)c(F)c3)C3CC3)CC2)n1` [Example 64, N-Cyclopropyl-3-fluoro-N-[1-(3-isopropyl-[1,2,4]oxadiazol-5-yl)-piperidin-4-yl]-4-oxazol-5-yl-benzamide] was run?
A: 4 nM

Q: With `CCCc1noc(N2CCC(N(C(=O)c3ccc(-c4cnco4)c(F)c3)C3CC3)CC2)n1` [Example 65, N-Cyclopropyl-3-fluoro-4-oxazol-5-yl-N-[1-(3-propyl-[1,2,4]oxadiazol-5-yl)-piperidin-4-yl]-benzamide] as the compound, how does the EC50 read?
A: 7 nM

Q: With `Cc1cnc(N2CCC(N(C(=O)c3ccc(-c4cnco4)c(F)c3)C3CC3)CC2)cn1` [Example 66, N-Cyclopropyl-3-fluoro-N-[1-(5-methyl-pyrazin-2-yl)-piperidin-4-yl]-4-oxazol-5-yl-benzamide] as the compound, how does the EC50 read?
A: 210 nM

Q: With `CC(C)(C)c1noc(N2CCC(N(C(=O)c3ccc(-c4cnco4)c(F)c3)C3CC3)CC2)n1` [Example 67, N-[1-(3-tert-Butyl-[1,2,4]oxadiazol-5-yl)-piperidin-4-yl]-N-cyclopropyl-3-fluoro-4-oxazol-5-yl-benzamide] as the compound, how does the EC50 read?
A: 188 nM

Q: For `CCc1cnc(N2CCC(N(C(=O)c3ccc(-c4cnco4)c(F)c3)C3CC3)CC2)cn1` [Example 68, N-Cyclopropyl-N-[1-(5-ethyl-pyrazin-2-yl)-piperidin-4-yl]-3-fluoro-4-oxazol-5-yl-benzamide], which EC50 is on record?
A: 211 nM

Q: How did the EC50 turn out when `CC(C)c1noc(N2CCC(N(C(=O)c3cc(F)c(-c4cnco4)c(F)c3)C3CC3)CC2)n1` [Example 69, N-Cyclopropyl-3,5-difluoro-N-[1-(3-isopropyl-[1,2,4]oxadiazol-5-yl)-piperidin-4-yl]-4-oxazol-5-yl-benzamide] was run?
A: 198 nM

Q: How did the EC50 turn out when `Cc1cnc(N2CCC(N(C(=O)c3ccc(-c4cnco4)c(F)c3)C3CC3)CC2)nc1` [Example 70, N-Cyclopropyl-3-fluoro-N-[1-(5-methyl-pyrimidin-2-yl)-piperidin-4-yl]-4-oxazol-5-yl-benzamide] was run?
A: 191 nM

Q: Which EC50 does the source give for `O=C(c1ccc(-c2cnco2)cc1)N(C1CC1)C1CCN(c2ncc(Br)cc2F)CC1` [Example 71, N-(5′-Bromo-3′-fluoro-3,4,5,6-tetrahydro-2H-[1,2′]bipyridinyl-4-yl)-N-cyclopropyl-4-oxazol-5-yl-benzamide] here?
A: 11 nM

Q: `O=C(c1ccc(-c2cnco2)cc1)N(C1CC1)C1CCN(c2ccc(C3CC3)nn2)CC1` [Example 72, N-Cyclopropyl-N-[1-(6-cyclopropyl-pyridazin-3-yl)-piperidin-4-yl]-4-oxazol-5-yl-benzamide] was tested. Which EC50 did it give?
A: 864 nM

Q: For `Cc1cnc(N2CCC(N(C(=O)c3ccc(-c4cnco4)cc3)C3CC3)CC2)c(F)c1` [Example 73, N-Cyclopropyl-N-(3′-fluoro-5′-methyl-3,4,5,6-tetrahydro-2H-[1,2′]bipyridinyl-4-yl)-4-oxazol-5-yl-benzamide], which EC50 is on record?
A: 38 nM

Q: With `O=C(c1ccc(-c2cnco2)cc1)N(C1CC1)C1CCN(c2ncc(C(F)(F)F)cc2F)CC1` [Example 74, N-Cyclopropyl-N-(3′-fluoro-5′-trifluoromethyl-3,4,5,6-tetrahydro-2H-[1,2′]bipyridinyl-4-yl)-4-oxazol-5-yl-benzamide] as the compound, how does the EC50 read?
A: 8 nM

Q: How did the EC50 turn out when `CCCOc1cnc(N2CCC(N(C(=O)c3ccc(-c4cnco4)cc3)C3CC3)CC2)nc1` [Example 75, N-Cyclopropyl-4-oxazol-5-yl-N-[1-(5-propoxy-pyrimidin-2-yl)-piperidin-4-yl]-benzamide] was run?
A: 87 nM

Q: For `CCOc1cnc(N2CCC(N(C(=O)c3ccc(-c4cnco4)cc3)C3CC3)CC2)nc1` [Example 76, N-Cyclopropyl-N-[1-(5-ethoxy-pyrimidin-2-yl)-piperidin-4-yl]-4-oxazol-5-yl-benzamide], which EC50 is on record?
A: 165 nM

Q: Which EC50 does the source give for `CC(C)Oc1cnc(N2CCC(N(C(=O)c3ccc(-c4cnco4)cc3)C3CC3)CC2)nc1` [Example 77, N-Cyclopropyl-N-[1-(5-isopropoxy-pyrimidin-2-yl)-piperidin-4-yl]-4-oxazol-5-yl-benzamide] here?
A: 115 nM

Q: With `O=C(c1ccc(-c2cnco2)cc1)N(C1CC1)C1CCN(c2cnc(C3CC3)cn2)CC1` [Example 78, N-Cyclopropyl-N-[1-(5-cyclopropyl-pyrazin-2-yl)-piperidin-4-yl]-4-oxazol-5-yl-benzamide] as the compound, how does the EC50 read?
A: 43 nM

Q: With `O=C(c1ccc(-c2cnco2)cc1)N(C1CC1)C1CCN(c2nnc(-c3ccccc3)s2)CC1` [Example 79, N-Cyclopropyl-4-oxazol-5-yl-N-[1-(5-phenyl-[1,3,4]thiadiazol-2-yl)-piperidin-4-yl]-benzamide] as the compound, how does the EC50 read?
A: 75 nM

Q: For `O=C(c1ccc(-c2cnco2)cc1)N(C1CC1)C1CCN(c2ccc(Cl)cn2)CC1` [Example 80, N-(5′-Chloro-3,4,5,6-tetrahydro-2H-[1,2′]bipyridinyl-4-yl)-N-cyclopropyl-4-oxazol-5-yl-benzamide], which EC50 is on record?
A: 179 nM

Q: With `COC(=O)c1cnc(N2CCC(N(C(=O)c3ccc(-c4cnco4)cc3)C3CC3)CC2)cn1` [Example 81, 5-{4-[Cyclopropyl-(4-oxazol-5-yl-benzoyl)-amino]-piperidin-1-yl}-pyrazine-2-carboxylic acid methyl ester] as the compound, how does the EC50 read?
A: 498 nM

Q: Which EC50 does the source give for `Cc1cnc(C)c(N2CCC(N(C(=O)c3ccc(-c4cnco4)cc3)C3CC3)CC2)n1` [Example 82, N-Cyclopropyl-N-[1-(3,6-dimethyl-pyrazin-2-yl)-piperidin-4-yl]-4-oxazol-5-yl-benzamide] here?
A: 116 nM

Q: For `O=C(c1ccc(-c2cnco2)cc1)N(C1CC1)C1CCN(c2cnc(I)cn2)CC1` [Example 83, N-Cyclopropyl-N-[1-(5-iodo-pyrazin-2-yl)-piperidin-4-yl]-4-oxazol-5-yl-benzamide], which EC50 is on record?
A: 10 nM

Q: With `COC(=O)c1cnc(N2CCC(N(C(=O)c3ccc(-c4cnco4)cc3)C3CC3)CC2)nc1` [Example 84, 2-{4-[Cyclopropyl-(4-oxazol-5-yl-benzoyl)-amino]-piperidin-1-yl}-pyrimidine-5-carboxylic acid methyl ester] as the compound, how does the EC50 read?
A: 116 nM

Q: With `O=C(c1ccc(-c2cnco2)cc1)N(C1CC1)C1CCN(c2cnccn2)CC1` [Example 85, N-Cyclopropyl-4-oxazol-5-yl-N-(1-pyrazin-2-yl-piperidin-4-yl)-benzamide] as the compound, how does the EC50 read?
A: 449 nM

Q: With `N#Cc1cnc(N2CCC(N(C(=O)c3ccc(-c4cnco4)cc3)C3CC3)CC2)cn1` [Example 86, N-[1-(5-Cyano-pyrazin-2-yl)-piperidin-4-yl]-N-cyclopropyl-4-oxazol-5-yl-benzamide] as the compound, how does the EC50 read?
A: 139 nM

Q: `O=C(c1ccc(-c2cnco2)cc1)N(C1CC1)C1CCN(c2nnc(C(F)(F)F)s2)CC1` [Example 87, N-Cyclopropyl-4-oxazol-5-yl-N-[1-(5-trifluoromethyl-[1,3,4]thiadiazol-2-yl)-piperidin-4-yl]-benzamide] was tested. Which EC50 did it give?
A: 25 nM

Q: `O=C(c1ccc(-c2cnco2)cc1)N(C1CC1)C1CCN(c2ncc(C3CC3)cn2)CC1` [Example 88, N-Cyclopropyl-N-[1-(5-cyclopropyl-pyrimidin-2-yl)-piperidin-4-yl]-4-oxazol-5-yl-benzamide] was tested. Which EC50 did it give?
A: 71 nM

Q: `Cc1cnc(N2CCC(N(C(=O)c3ccc(-c4cnco4)cc3)C3CC3)CC2)nc1` [Example 89, N-Cyclopropyl-N-[1-(5-methyl-pyrimidin-2-yl)-piperidin-4-yl]-4-oxazol-5-yl-benzamide] was tested. Which EC50 did it give?
A: 34 nM

From patent US8822471B2, “Compounds, pharmaceutical compositions and uses thereof” (Boehringer Ingelheim International GmbH, priority 2011, dated 2014)
